The results in this text go back to publication PMC11620517, “Novel hydrazone compounds with broad-spectrum antiplasmodial activity and synergistic interactions with antimalarial drugs” (Antimicrobial Agents and Chemotherapy, 2024).

Read-outs that look alike come from different tables or passages of the source.

Data set [1] relates to P. berghei ookinete development (Ookluc parasites). Kind of data set: P. berghei ookinete luciferase inhibition assay. Format: cell-based, Plasmodium berghei. The settings on record: dose–response 2.5–75 µM. As for the experimental part: Mice were pretreated with phenylhydrazine [6 mg/mL, intraperitoneal injection (IP)] 3 days before intravenous injection (IV) infection with P. berghei Ookluc parasites ([19], [62]). Once parasitemia exceeded 15%, the mice received PYR (1 mg/mL, IP) ([19], [62]). Twenty-four hours after PYR treatment, infected mice were assessed for at least 10 exflagellations before blood was collected by heart puncture ([19], [62]). Infected blood (1:20 dilution) was incubated with 8-point serial dilutions (2.5–75 µM) of CB compounds for 24 hours at 19°C with gentle shaking ([62], [64]). Relative luminescence units (RLU) of mature ookinetes were measured using the Promega Nano-Glo Luciferase Assay System Kit and a SpectraMax M3 Microplate Reader (Molecular Devices, San Jose, CA, USA) after 3 minutes. Giemsa blood smears confirmed ookinetes.

Data set [2] has as its system P. cynomolgi hypnozoites and hepatic schizonts. Kind of data set: P. cynomolgi liver-stage inhibition assay. Conditions: Plasmodium cynomolgi, prophylactic drug treatment mode. The format is cell-based, Plasmodium cynomolgi. As for the experimental part: (§1) Primary primate hepatocytes were seeded in 384-well plates and used within 2–4 days ([56]). P. cynomolgi B strain parasites were inoculated and developed into hypnozoites and schizonts. CB compounds were tested in 8-point, threefold serial dilutions (100 µM to […]) for both prophylactic (4 days starting with sporozoite addition) and radical cure (4 days starting day 4 post-inoculation) modalities ([56][–][60]). The Operetta CLS imaging system and Harmony Software 4.9 (Perkin Elmer, Waltham, MA, USA) analyzed the plates, and the percentage of inhibition (PI) was calculated in Python using equation (1), where parasitic quantities (hypnozoite and schizont counts) were normalized to the negative control ([57]). Each plate included negative (DMSO) and positive (KDU691, maduramicin, tafenoquine) controls ([58]). IC50 values were determined using an 8-point, threefold dilution format and a Python-adapted grid algorithm for fitting PI to a four-parameter logistic function ([61]).
PI = 100 ∗(1−(xy/Meanneg))

A short description of a further data set: in vitro. Conditions: human, HepG2 cells.
The subject of data set [3] is primary primate hepatocytes. The experiment in a line: hepatocyte toxicity in the P. cynomolgi liver-stage assay. The format is cell-based. The protocol:
as §1

For a further data set, the system named is P. falciparum D6. Kind of data set: Malaria SYBR Green I-Based Fluorescence (MSF) assay, blood stages. The format is cell-based. The settings on record: Plasmodium falciparum, D6; blood stages, 72 hours, drug-sensitive strain; read-out: IC50 (µM) (±SD) for strain: D6. As for the experimental part:
(§2) MSF assays were performed in vitro with four P. falciparum strains: D6 (drug sensitive), TM91-C235 (multidrug resistant), W2 (CQ resistant), and C2B (multidrug resistant against ATQ). Parasite strains were kept continuously in long-term cultures as described ([22]). Pre-dosed 384-well plates containing […] serial dilutions of CB compounds (0.0098–20 µM) were prepared using the Tecan Freedom Evo liquid handling system (Tecan USA, Inc., Durham, NC, USA) and were stored at 4°C. A CQ control plate (2,000 ng/mL) was included in each run. Based on modifications of previous methods ([17], [55]), late-ring or early-trophozoite stages were cultured in pre-dosed plates with 0.3% parasitemia and 2% hematocrit. Cultures were incubated for 72 hours at 37°C in a controlled atmosphere of 5% CO2, 5% O2, and 90% N2. Lysis buffer, consisting of 20 mM Tris HCl, 5 mM EDTA, 1.6% Triton X, 0.016% saponin, and SYBR Green I dye at a 20X concentration (Invitrogen #S-7567), was added to the plates for a final 10X SYBR Green concentration. Plates containing cell culture media and lysis buffer were incubated in the dark at 25°C for 24 hours, and the relative fluorescence units (RFU) were measured using the Tecan Genios Plus (Tecan USA, Inc.).

The test system of the next data set is P. falciparum W2. Described as above. Format: cell-based. Conditions: Plasmodium falciparum, W2; blood stages, 72 hours, CQ resistant strain; read-out: IC50 (µM) (±SD) for strain: W2. As for the experimental part: as §2
The next data set deals with P. falciparum TM91c235. Described as above. The format is cell-based. Conditions: Plasmodium falciparum; blood stages, 72 hours, multidrug resistant strain; read-out: IC50 (µM) (±SD) for strain: TM91c235. The protocol:
as §2

A further data set relates to P. falciparum C2B. The data set is described as above. Format: cell-based. The settings on record: Plasmodium falciparum, 72 h, read-out: IC50 (µM) (±SD) for strain: C2B. The protocol:
as §2

Data set [4] relates to recombinant P. berghei GST. Kind of data set: GST inhibition assay (CDNB). Format: biochemical, Plasmodium berghei. As for the experimental part: (§3) Enzymatic activities of recombinant GSTs were determined spectrophotometrically using the chromogenic substrate 1-chloro-2,4-dinitrobenzene (CDNB). Recombinant GST (0.35 mg/mL) was mixed with 1 mM CDNB in 100 mM HEPES. Stock solutions (10 mM) of the CB compounds and hemin were prepared in 100% dimethyl sulfoxide (DMSO) and then diluted at 0.5% DMSO ([14]). Each inhibitor has six concentrations ranging from 1 to 50 µM. The reaction was initiated with 1 mM glutathione (GSH) after 15 minutes. Absorbance change at 340 nm was measured for 1 hour. The slope was converted to micromole per minute using Beer’s equation and the extinction coefficient for the product S-(2,4-dinitrophenyl)glutathione (ε340 nm = 9.6 mM^–1 cm^–1) ([14]). The assay was validated using human placenta GST (#G8642) as a positive control.

Data set [5] concerns the target T1, recombinant P. falciparum GST (Plasmodium falciparum, UniProt Q8ILQ7).
T1 construct: The open reading frames encoding PfGST, PbGST, and hGST were gene-synthesized; TEV cleavage site (C); Avitag (C); purchased InterRayBio, LLC; host or cells: E. coli BL21 (DE3)
T1 sequence (Q8ILQ7 1-211): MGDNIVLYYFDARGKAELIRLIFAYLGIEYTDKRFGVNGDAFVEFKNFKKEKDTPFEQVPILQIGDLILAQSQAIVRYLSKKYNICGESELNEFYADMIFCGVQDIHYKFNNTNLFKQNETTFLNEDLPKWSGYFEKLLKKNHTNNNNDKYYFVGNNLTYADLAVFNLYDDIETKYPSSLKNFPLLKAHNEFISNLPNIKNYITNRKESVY
Kind of data set: GST inhibition assay (CDNB). Format: biochemical. The protocol: as §3

For another data set, the target named is T2, human GST (Homo sapiens, UniProt P08263).
T2 construct: The open reading frames encoding PfGST, PbGST, and hGST were gene-synthesized; TEV cleavage site (C); Avitag (C); purchased InterRayBio, LLC; host or cells: E. coli BL21 (DE3)
T2 sequence (P08263 1-222): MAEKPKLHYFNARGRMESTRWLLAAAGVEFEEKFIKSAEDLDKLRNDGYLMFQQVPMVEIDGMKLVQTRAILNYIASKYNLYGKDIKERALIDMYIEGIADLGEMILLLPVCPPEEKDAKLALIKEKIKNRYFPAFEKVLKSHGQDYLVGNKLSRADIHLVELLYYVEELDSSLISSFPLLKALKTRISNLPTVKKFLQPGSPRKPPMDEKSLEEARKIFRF
Kind of data set: GST inhibition assay (CDNB). Format: biochemical. As for the experimental part: as §3

Data set [6] concerns P. berghei male gamete activation. Kind of data set: Exflagellation assay (male gametocyte activation). Format: cell-based, Plasmodium berghei. Conditions: 125 nM, positive control. The protocol: Exflagellation assays were performed to assess the effect of CB compounds on P. berghei male gametocyte activation ([19]). Tail blood from PYR-administered mice was mixed with DMSO, aphidicolin (125 nM), or CB compounds (10 µM) in complete ookinete medium and heparin (30 µg/mL) ([19]). After a 15-minute incubation, the sample was diluted in complete ookinete medium with 10 µM inhibitor and adjusted to a final blood concentration of 1:20. Exflagellations were quantified by counting all events in the middle squares of a hemocytometer. The effect of CB compounds on macrogamete formation was analyzed by flow cytometry using the anti-Pbs21 antibody ([65]). Following PYR administration, infected blood for cardiac puncture was cultured with CB compounds (10 µM) for 2 hours to stimulate gametocyte activation ([66]). Aliquots were then incubated with anti-Pbs21 antibody (1:500) for 1 hour, followed by anti-mouse IgG conjugated Alexa Fluor 594 (1:1,000) for another hour ([65]). Samples were centrifuged (3,000 × g for 3 minutes), pellets were resuspended in phosphate-buffered saline (PBS) and analyzed by flow cytometry (FACSCelesta, FACS Diva Software, BD Biosciences, San Jose, CA, USA) with 1 million events counted per experiment ([66]).

For data set [7], the system named is P. berghei blood-stage parasites. Kind of data set: P. berghei blood-stage isobolograms. Format: cell-based, Plasmodium berghei. The settings on record: LUM in combination with DHA (positive control). As for the experimental part:
Antimalarial activity and IC50 values of CB-61 and five antimalarial drugs were assessed using the previously described in vitro drug luminescence assay ([14], [68]). Blood-stage isobolograms were performed to confirm synergistic combinations between CB-61 and the five drugs, following established protocols ([69]). Thirty-two-fold IC50 concentrations were used to obtain six concentration ranges for each drug combination, and then they were serially diluted five times ([67]). IC50 scores for each drug alone were determined, and FIC50 values (FIC50 = […]) were calculated and plotted ([70], [71]). The Promega Luciferase Assay System Kit was used to measure mature schizonts’ RLUs, and Giemsa blood smears confirmed the presence of schizonts ([14]).

[8] abbreviates: recombinant GST 0.35 mg/mL, 1–50 µM.

Experimental for in vitro: HepG2 cell viability was assessed using the Cell Proliferation kit with trypan blue exclusion. […] After incubation, a 1.5-mg/mL Cell Proliferation kit solution diluted in complete MEM medium was added to each well, followed by 1-hour dark incubation at 25°C. After aspiration of media and inhibitors, the plates were dried in a hood for 15 minutes, and acidified isopropyl alcohol was added to dissolve formazan dye crystals. The plates were then rotated for 15–30 minutes, and absorbance was determined using a Perkin Elmer Ensight plate reader.

The term IC50 denotes the concentration that inhibits the measured activity by half. For the compound `O=C(Nc1cc(Cl)ccc1O)c1cc2nc(-c3ccccc3)cc(-c3ccccc3)n2n1` [CB-59], in data set [1], the “activity in ookinete formation” value is “no activity”. The IC50 in data set [2] (read-out: Hypnozoite IC50) is above 10000 nM; in data set [2] (read-out: Schizont IC50), above 10000 nM; in data set [2] (read-out: Total parasite IC50), above 10000 nM; in the data set with P. falciparum D6 it was 1.73 µM; in the data set with P. falciparum W2 it was 0.69 µM; in the data set on P. falciparum TM91c235 it was 2.96 µM. Besides, the half-maximal inhibitory concentration (IC50) in the data set with P. falciparum C2B came out at 2.91 µM. Moreover, in “in vitro”, the half-inhibitory concentration (IC50) at 48 h was above 20000 nM. The same compound returned a Toxicity in data set [3] above 10 µM. Moreover, the GST inhibition result (in [4] (6-point 1–50 µM); in data set [5] (6-point 1–50 µM); on human GST (6-point 1–50 µM)) was “did not inhibit” each time.
Regarding Hemin [reference compound], the IC50 in data set [4] (setting [8]) is 16100 nM; in data set [5] (setting [8]), 1600 nM; at human GST (setting [8]), below 1000 nM.
With `C[C@@]1(CO)[C@H](O)CC[C@@]2(C)[C@H]1CC[C@H]1C[C@@H]3C[C@@]12CC[C@]3(O)CO` [aphidicolin], in data set [6], the “number of exflagellation events” value is below 50%.
On to `CCCCN(CCCC)CC(O)c1cc(Cl)cc2c1-c1ccc(Cl)cc1/C2=C/c1ccc(Cl)cc1` (stereo not drawn) [LUM, lumefantrine, reference compound], for which, in [7], the “Mean ΣFIC50” value was 0.74.
